Assay results as given in patent US20250019379A1, “NEW CRYSTAL FORM OF COMPOUND, AND PREPARATION METHOD THEREFOR AND USE THEREOF” (E-nitiate Biopharmaceuticals (Hangzhou) Co., Ltd, priority 2021, published 2025).

Experiments:
[1] = Influencing factors test (light, high temperature, high humidity); format: physicochemical
Method: The stability of the crystalline form of the present invention under accelerated test conditions was determined. […] Stability testing was conducted under the following conditions, and samples were taken on the 0th day, the 5th day, the 10th day and the 30th day. The content, total impurities, and XRPD patterns of the samples were recorded and compared with the initial data.

[2] = Thermodynamic analysis experiment (heating, XRPD); format: physicochemical; details: compared with crystalline form H and crystalline form S
Method: Crystalline form H and crystalline form S were heated to appropriate temperatures under N2 protection, and after cooling to room temperature, the XRPD of the solids was measured.

[3] = Hygroscopicity experiment; format: physicochemical; details: Chinese Pharmacopoeia 2020, General Chapter 9103
Method: The hygroscopicity data of the samples were collected using the ADVENTURE series dynamic gas phase adsorption instrument under N2 protection. The sample dosage is about 30 mg.
The hygroscopicity of the above crystalline form was determined with reference to the 2020 edition of the Chinese Pharmacopoeia, General Chapter 9103, Guidelines for Drug Hygroscopicity Tests.

[4] = Pharmacokinetic experiment; format: in vivo; details: SD rats, single intragastric administration
Method: 12 SD rats were divided into two groups, with 6 rats in each group, half male and half female, and each was given a single intragastric administration; blood was collected through the fundus venous plexus at designated time points, and the plasma was separated and stored in a −80° C. refrigerator.
For the above plasma sample, after protein precipitation with acetonitrile, the supernatant was diluted with water and 5 μL was transferred to LC-MS/MS for detection.

[5] = Solid state stability (HPLC purity, XRPD); format: physicochemical; details: for Purity (%): open
Method: Purity testing (via HPLC) and crystal form detection (via XRPD) were performed on starting samples, samples stored for one week, and samples stored for two weeks.

[6] = Dynamic solubility in biological solvents at 37° C.; format: physicochemical
Method: (1) Preparation method of FaSSIF: a. Weigh 42 mg NaOH, 395 mg NaH2PO4·H2O and 619 mg NaCl in a 100 mL beaker, add 90 mL deionized water to dissolve: b. Adjust the pH to […]; Dilute to 100 mL with deionized water to obtain FaSSIF blank solvent: c. Weigh 224 mg of Simulated Intestinal Fluid (hereinafter referred to as SIF powder), add 50 mL of the above FaSSIF blank solvent, and stir until completely dissolved; use Dilute the FaSSIF blank solvent to 100 mL to prepare the solvent FaSSIF; d. Let it stand at room temperature for 2 hours before use.
(2) Preparation method of FeSSIF: a. Weigh 404 mg NaOH, 865 mg glacial acetic acid and 1189 mg NaCl in a 100 mL beaker, add 90 mL deionized water to dissolve: b. Adjust the pH to 5.0 with 1N NaOH or 1N HCl; Dilute to 100 mL with deionized water to obtain FeSSIF blank solvent; c. Weigh 1120 mg SIF powder and add 50 mL of the above FeSSIF blank solvent, stir until dissolved: dilute to 100 mL with FeSSIF blank solvent to obtain FeSSIF solvent d. Let it stand at room temperature before use to ensure a clear solution.
(3) Preparation method of SGF: a. Weigh 200 mg NaCl in a 100 mL beaker, add 90 mL deionized water to dissolve; b. Adjust the pH to 1.6 with 1N HCl; dilute to 100 mL with deionized water to obtain SGF Blank solvent; c. Weigh 6 mg SIF powder and add 50 mL of the above SGF blank solvent, stir until dissolved: dilute to 100 mL with SGF blank solvent to prepare the solvent SGF: d. Let it stand at room temperature before use to ensure a clear solution.
(100 rpm). Take 1.3 mL of the suspension (or clarified solution) respectively at 1, 4, and 24 hours, and centrifuge the suspension for 5 minutes. The solid obtained is used for crystal form detection (XRPD), and the supernatant/clarified solution is filtered for solubility testing and pH test.
Solubility data of the samples were collected using a high-performance liquid chromatograph equipped with an image diode array detector.

[7] = High humidity test (25° C., 90 ± 5% RH), 5 d
[8] = High humidity test (25° C., 90 ± 5% RH), 10 d
[9] = High humidity test (25° C., 90 ± 5% RH), 30 d
[10] = High temperature test (60° C.), 5 d
[11] = High temperature test (60° C.), 10 d
[12] = High temperature test (60° C.), 30 d
[13] = Light test (Illuminance 5000 Lx and UV lamp energy 0.9 W/m^2), 5 d
[14] = Light test (Illuminance 5000 Lx and UV lamp energy 0.9 W/m^2), 10 d
[15] = Light test (Illuminance 5000 Lx and UV lamp energy 0.9 W/m^2), 30 d

SMILES: C[C@@H](O)c1nc2cnc3[nH]ccc3c2n1N1CCC(CC#N)CC1 [Crystalline form A, (R)-2-(1-(2-(1-hydroxyethyl)imidazo[4,5-d]pyrrolo[2,3-b]pyridine-1(6H)-yl)piperidin-4-yl)acetonitrile]
- Content (%) ([1]; 0 d): 99.1%
- Total impurity ([1]; 0 d): 0.325%
- stability under accelerated test conditions (content, total impurities, XRPD) ([1]; 5000Lx light, 60° C., 90% RH±5% RH, 0, 5, 10, 30 days): better stability
- Content (%) [1, 7]: 100.1%
- Total impurity [1, 7]: 0.32%
- Content (%) [1, 8]: 100.1%
- Total impurity [1, 8]: 0.31%
- Content (%) [1, 9]: 100.1%
- Total impurity [1, 9]: 0.32%
- Content (%) [1, 10]: 100.2%
- Total impurity [1, 10]: 0.34%
- Content (%) [1, 11]: 100.4%
- Total impurity [1, 11]: 0.33%
- Content (%) [1, 12]: 100.3%
- Total impurity [1, 12]: 0.35%
- Content (%) [1, 13]: 99.5%
- Total impurity [1, 13]: 0.34%
- Content (%) [1, 14]: 98.9%
- Total impurity [1, 14]: 0.36%
- Content (%) [1, 15]: 99.4%
- Total impurity [1, 15]: 0.43%
- thermodynamic stability [2]: thermodynamically more stable
- hygroscopicity class [3]: no or almost no hygroscopicity
- weight gain (hygroscopicity) [3]: 0.05%
- bioavailability in the body [4]: high bioavailability
- solid-state stability (conclusion) [5]: good solid-state stability
- Purity (%) ([5]; 1 week, 25° C./60% RH): 99.64%
- Purity (%) ([5]; 1 week, 40° C./75% RH): 99.62%
- Purity (%) ([5]; 1 week, 60° C.): 99.62%
- Crystal form changes ([5]; 1 week, 25° C./60% RH, 40° C./75% RH, 60° C.): no change
- Purity (%) ([5]; 2 week, 25° C./60% RH): 99.60%
- Purity (%) ([5]; 2 week, 40° C./75% RH): 99.60%
- Purity (%) ([5]; 2 week, 60° C.): 99.66%
- Crystal form changes ([5]; 2 week, 25° C./60% RH, 40° C./75% RH, 60° C.): no change
- change in the crystalline form (XRPD) ([5]; after one week and two weeks of storage under the selected conditions): no change
- change in purity ([5]; after one week and two weeks under the selected conditions): no significant change
- Starting sample Purity (%) ([5]; starting sample): 99.59%
- Changes in Crystal form ([6]; FaSSIF, 37° C., 1 h): no change
- pH ([6]; FaSSIF, 37° C., 1 h): 6.41
- pH ([6]; FaSSIF, 37° C., 4 h): 6.49
- Changes in Crystal form ([6]; FaSSIF, 37° C., 24 h): no change
- pH ([6]; FaSSIF, 37° C., 24 h): 6.54
- Changes in Crystal form ([6]; FeSSIF, 37° C., 1 h): no change
- pH ([6]; FeSSIF, 37° C., 1 h): 4.92
- pH ([6]; FeSSIF, 37° C., 4 h): 4.95
- Changes in Crystal form ([6]; FeSSIF, 37° C., 24 h): no change
- pH ([6]; FeSSIF, 37° C., 24 h): 4.99
- Changes in Crystal form ([6]; SGF, 37° C., 1 h): no change
- pH ([6]; SGF, 37° C., 1 h): 2.92
- pH ([6]; SGF, 37° C., 4 h): 2.99
- Changes in Crystal form ([6]; SGF, 37° C., 24 h): no change
- pH ([6]; SGF, 37° C., 24 h): 2.95
- crystal form stability when suspended and stirred ([6]; SGF/FeSSIF/FeSSIF, 24 hours, 37° C.): stable
- solubility in three solvents (SGF/FaSSIF/FeSSIF), comparison ([6]; within 24 hours at 37° C.): greater than that of crystalline form Q
